Earlier results as cited in patent US20040131694A1, “Pharmaceutical composition for the medical treatment of the benign prostatic hyperplasia, its preparation method and its therapeutic application” (H.P.B. S.A., priority 2002, published 2004).

System: Bladder outlet obstruction due to Benign Prostatic Hyperplasia
[1] = Up to 24 weaks of treatment, Tammela and Kontturi 1993

In the case of `CC(C)(C)NC(=O)[C@H]1CC[C@H]2[C@@H]3CC[C@H]4NC(=O)C=C[C@]4(C)[C@H]3CC[C@]12C` [Finasteride], the Daytime frequency [1] is listed as 1.4, the Dysuria [1] is listed as 0.4 and the Hesitancy [1] is listed as 0.5. For the same compound, the Intermittence [1] was 0.7, the Nocturia [1] was 1.5 and the “Prostatic specific antigen (ng. %)” value [1] was 2.9 ng. %. The “Prostatic volume (grs.)” value [1] was 35 gr, the “Q max.” value [1] was 10.3 mL/s and the “Residual urine volume (ml.)” value [1] was 76 cc. The “Sensation of incomplete Voiding” value [1] was 0.9, the Terminal dribbling [1] was 0.4 and the “Total points (I-PSS)” value [1] was 7.1 points. The Urgency [1] was 0.7, the Weak stream [1] was 0.6 and the Residual effect (treatment must be continuous) was “none”.
